pIC50: −log10 of the molar value.
Molecular target: human NaV 1.8 (Homo sapiens, UniProt Q9Y5Y9)
Test: E-VIPR Assay Detecting and Measuring NaV Inhibition Properties
Assay type: cell-based
Details: HEK cells expressing a truncated form of human NaV 1.8; compound number without "*" (not marked as run in the presence of human serum)
Excerpt: Sodium ion channels are voltage-dependent proteins that can be activated by inducing membrane voltage changes by applying electric fields. The electrical stimulation instrument and methods of use, referred to as E-VIPR, are described in International Publication No. WO 2002/008748 A3 and C.-J. Huang et al. Characterization of voltage-gated sodium channel blockers by electrical stimulation and fluorescence detection of membrane potential, 24 Nature Biotech. 439-46 (2006), both of which are incorporated by reference in their entirety. The instrument comprises a microtiter plate handler, an optical system for exciting the coumarin dye while simultaneously recording the coumarin and oxonol emissions, a waveform generator, a current- or voltage-controlled amplifier, and parallel electrode pairs that are inserted into assay plate wells. Under integrated computer control, this instrument passes user-programmed electrical stimulus protocols to cells within the wells of the microtiter plate.
16-20 hours prior to running the assay on E-VIPR, HEK cells expressing a truncated form of human NaV 1.8 with full channel activity were seeded into microtiter 384-well plates, pre-coated with matrigel, at a density of 25,000 cells per well. 2.5-5% KIR2.1 Bacmam virus was added to the final cell suspension before seeding into cell plates. HEK cells were grown in Dulbecco's Modified Eagle's Medium (DMEM) supplemented with 10% FBS (Fetal Bovine Serum, qualified; Sigma #F4135), 1% NEAA (Non-Essential Amino Acids, Gibco #11140), 1% HEPES (Gibco #15630), 1% Pen-Strep (Penicillin-Streptomycin; Gibco #15140) and 5 μg/ml Blasticidin (Gibco #R210-01). Cells were expanded in vented cap cell culture flasks, with 90-95% humidity and 5% CO2.
Reagents and Stock Solutions:
• 100 mg/mL Pluronic F-127 (Sigma #P2443), in dry DMSO • Compound Plates: Corning 384-well Polypropylene Round Bottom #3656 • Cell Plates: 384-well tissue culture treated plates (Greiner #781091-2B)
2.5-5% KIR 2.1 Bacmam virus (produced in-house), prepared as described in Section 3.3 of J. A. Fornwald et al., Gene Expression in Mammalian Cells Using BacMam, a Modified Baculovirus System, 1350 Methods in Molecular Biology 95-116 (2016), the entire contents of which are incorporated by reference. The concentration used can be dependent on viral titer of each batch.
5 mM DiSBAC6(3), a voltage sensitive oxonol acceptor (CAS number 169211-44-3; 5-[3-(1,3-dihexylhexahydro-4,6-dioxo-2-thioxo-5-pyrimidinyl)-2-propen-1-ylidene]-1,3-dihexyldihydro-2-thioxo-4,6(1H,5H)-pyrimidinedione), in dry DMSO. The preparation of DiSBAC6(3) is analogous to that of DiSBAC4(3) as described in Voltage Sensing by Fluorescence Resonance Energy Transfer in Single Cells, Gonzalez, J. E. and Tsien, R. Y. (1995) Biophys. J. 69, 1272-1280.
5 mM CC2-DMPE, a commercially available membrane-bound coumarin phospholipid FRET donor (ThermoFisher Scientific catalog number K1017, CAS number 393782-57-5; tetradecanoic acid, 1,1′-[(1R)-1-[8-(6-chloro-7-hydroxy-2-oxo-2H-1-benzopyran-3-yl)-3-hydroxy-3-oxido-8-oxo-2,4-dioxa-7-aza-3-phosphaoct-1-yl]-1,2-ethanediyl] ester) was prepared in dry DMSO. See also, Improved indicators of cell membrane potential that use fluorescence resonance energy transfer, Gonzalez, J. E. and Tsien, R. Y. (1997) Chem. Biol. 4, 269-277.
Voltage Assay Background Suppression Compound (VABSC-1) is prepared in H2O (89-363 mM, range used to maintain solubility)
Human Serum (HS, Millipore #S1P1-01KL, or Sigma SLBR5469V and SLBR5470V as a 50%/50% mixture, for 25% assay final concentration)
• Sodium Chloride 160 mM (9.35 g/L), Potassium Chloride, 4.5 mM (0.335 g/L), Glucose 10 mM (1.8 g/L), Magnesium Chloride (Anhydrous) 1 mM (0.095 g/L), Calcium Chloride 2 mM (0.222 g/L), HEPES 10 mM (2.38 g/L) in water. […]

human NaV 1.8, sequence (Q9Y5Y9 126-1722 limits assumed): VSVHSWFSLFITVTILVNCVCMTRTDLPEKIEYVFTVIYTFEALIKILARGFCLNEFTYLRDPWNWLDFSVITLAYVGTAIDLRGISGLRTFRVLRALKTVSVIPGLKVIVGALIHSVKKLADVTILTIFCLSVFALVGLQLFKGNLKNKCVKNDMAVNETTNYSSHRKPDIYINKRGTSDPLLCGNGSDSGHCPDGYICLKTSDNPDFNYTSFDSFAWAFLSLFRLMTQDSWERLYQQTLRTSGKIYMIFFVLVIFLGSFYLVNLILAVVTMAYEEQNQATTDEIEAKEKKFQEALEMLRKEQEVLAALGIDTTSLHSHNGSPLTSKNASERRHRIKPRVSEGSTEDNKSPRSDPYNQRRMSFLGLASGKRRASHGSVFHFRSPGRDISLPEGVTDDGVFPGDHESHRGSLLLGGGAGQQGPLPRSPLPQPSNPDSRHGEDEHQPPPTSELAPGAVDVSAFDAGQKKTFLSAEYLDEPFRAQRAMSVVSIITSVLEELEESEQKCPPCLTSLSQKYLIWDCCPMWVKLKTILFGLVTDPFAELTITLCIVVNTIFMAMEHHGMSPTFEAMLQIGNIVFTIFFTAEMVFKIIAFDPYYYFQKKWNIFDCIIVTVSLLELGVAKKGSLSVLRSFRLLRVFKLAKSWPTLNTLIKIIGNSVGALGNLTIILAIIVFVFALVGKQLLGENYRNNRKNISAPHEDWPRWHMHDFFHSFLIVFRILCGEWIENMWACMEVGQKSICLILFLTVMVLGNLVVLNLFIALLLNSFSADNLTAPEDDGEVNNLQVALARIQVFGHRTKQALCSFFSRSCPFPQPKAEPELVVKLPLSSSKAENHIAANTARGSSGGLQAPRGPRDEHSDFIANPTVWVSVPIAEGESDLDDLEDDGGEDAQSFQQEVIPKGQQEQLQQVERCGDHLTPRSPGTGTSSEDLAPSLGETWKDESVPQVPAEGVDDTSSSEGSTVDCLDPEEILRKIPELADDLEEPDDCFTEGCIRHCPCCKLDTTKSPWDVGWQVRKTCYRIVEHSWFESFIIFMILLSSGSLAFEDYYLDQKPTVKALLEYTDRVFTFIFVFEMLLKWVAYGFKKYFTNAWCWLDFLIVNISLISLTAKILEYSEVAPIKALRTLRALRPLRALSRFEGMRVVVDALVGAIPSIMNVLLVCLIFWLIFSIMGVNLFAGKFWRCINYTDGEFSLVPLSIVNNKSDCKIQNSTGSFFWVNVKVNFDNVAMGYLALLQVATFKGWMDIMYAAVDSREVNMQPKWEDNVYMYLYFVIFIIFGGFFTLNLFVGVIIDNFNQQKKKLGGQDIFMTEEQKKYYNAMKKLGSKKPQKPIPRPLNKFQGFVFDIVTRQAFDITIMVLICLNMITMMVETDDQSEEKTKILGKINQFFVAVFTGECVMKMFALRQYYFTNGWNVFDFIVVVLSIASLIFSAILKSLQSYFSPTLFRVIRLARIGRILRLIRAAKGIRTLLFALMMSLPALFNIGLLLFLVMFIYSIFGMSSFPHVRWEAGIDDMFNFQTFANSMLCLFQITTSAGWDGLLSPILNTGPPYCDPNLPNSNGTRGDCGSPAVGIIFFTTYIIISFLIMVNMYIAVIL

COc1c([C@@H]2[C@H](OC(C)C)[C@H](C)O[C@H]2C(=O)Nc2ccc([C@@H](O)CO)nc2)ccc(F)c1F [Compound 16, (2R,3R,4S,5S)-3-(3,4-difluoro-2-methoxyphenyl)-N-(6-((R)-1,2-dihydroxyethyl)pyridine-3-yl)-4-isopropoxy-5-methyltetrahydrofuran-2-carboxamide]
pIC50: ≤ 6.00

COc1c([C@@H]2[C@H](OC(C)C)[C@H](C)O[C@H]2C(=O)Nc2ccc(CO)nc2)ccc(F)c1F [Compound 17, (2R,3R,4S,5S)-3-(3,4-difluoro-2-methoxyphenyl)-N-(6-(hydroxymethyl)pyridin-3-yl)-4-isopropoxy-5-methyltetrahydrofuran-2-carboxamide]
pIC50: ≤ 6.00

COc1c([C@@H]2[C@H](OC)[C@H](C(C)C)O[C@H]2C(=O)Nc2ccnc(C(N)=O)c2)ccc(F)c1F [Compound 24, 4-((2R,3R,4S,5S)-3-(3,4-difluoro-2-methoxyphenyl)-5-isopropyl-4-methoxytetrahydrofuran-2-carboxamido)picolinamide]
pIC50: > 8.00

CCO[C@H]1[C@@H](c2ccc(F)c(F)c2OC)[C@H](C(=O)Nc2ccnc(C(N)=O)c2)O[C@@]1(C)C(F)(F)F [Compound 25, 4-((2R,3R,4S,5R)-3-(3,4-difluoro-2-methoxyphenyl)-4-ethoxy-5-methyl-5-(trifluoromethyl)tetrahydrofuran-2-carboxamido)picolinamide]
pIC50: > 8.00

— patent US12662470B2, “Hydroxy and (halo)alkoxy substituted tetrahydrofurans as modulators of sodium channels” (VERTEX PHARMACEUTICALS INCORPORATED, priority 2021, dated 2026)
